Values of other authors, collected in publication PMC3461233 (Angewandte Chemie (International ed. in English), 2012).

Arg9
spontaneous translocation across synthetic membranes: does not translocate spontaneously
